Measurements published in patent publication US20110166191A1, “3-(2-amino-ethyl)-5-(3-cyclohexyl-propylidene)-thiazolidine-2,4-dione and its derivatives as multiple signaling pathway inhibitors and for the treatment of cancer” (priority 2010, published 2011).

What was measured:
p-MEK = test: Western blot analysis of p-MEK in U937 cells; assay type: cell-based; details: PMA/TPA 200 nM stimulation
Description: FIG. 1. U937 cells were treated with Formula II prepared as described in Example 4 [i.e. 3-(2-aminoethyl)-5-(3-cyclohexylpropylidene)thiazolidine-2,4-dione] for 1 h, then stimulated with PMA (200 nM) for 30 min. Lysates were analyzed for p-Akt, p-MEK, p-ERK and α-tubulin by western blot analysis.
Cells (5×10^5 per ml) were treated with various concentrations of test compound at 37° C. (5% CO2) for 3 hrs, then stimulated with TPA at a final concentration of 200 nM for 20 min. Samples from whole-cell pellets were prepared and 30 μg protein for each condition was subjected to SDS-PAGE, transferred onto a PVDF membrane, and blocked with 5% fat-free milk for 30 min. The membrane is probed with primary antibodies overnight at 4° C. followed by incubation with horseradish peroxidase-labeled anti-mouse IgG (1:5000, BD Biosciecne). The immunoreactive bands are detected by chemiluminescence methods (Pierce) and visualized on Kodak Omat film. The following primary antibodies were used: phospho-p44/42 MAPK (ERK1/2, Thr202/Tyr204), p44/42 MAPK, phospho-p90RSK (Thr359/Ser363), RSK1/RSK2/RSK3 (Cell Signaling). Blots were reprobed with antibodies against α-tubulin to ensure equal loading and transfer of proteins.

PC-3 = test: Cell viability assay; assay type: cell-based; details: Homo sapiens, PC-3 cells, 24 hrs, read-out: Inhibition of cancer cell proliferation IC50
Description: (§1) Cells were cultured at a density of 5×10^4 (U937) or 1×10^4 (PC-3, DU145, M12, HT29) cells per well in flat bottomed 96-well plates and treated with various concentrations of test compound at 37° C. (5% CO2). After 24 h, 20 μL of CellTiter 96® Aqueous One Solution Reagent (Promega, Madison, Wis.) was added to each well according to the manufacturer's instructions. After 1 hour, the cell viability was determined by measuring the absorbance at 490 nm using a micro-plate reader.

U937 = test: Cell viability assay; assay type: cell-based; details: Homo sapiens, U-937, U937 cells, 24 hrs, read-out: Inhibition of cancer cell proliferation IC50
Description: as §1

M12 = test: Cell viability assay; assay type: cell-based; details: M12 cells, 24 hrs, read-out: Inhibition of cancer cell proliferation IC50
Description: as §1

DU145 = test: Cell viability assay; assay type: cell-based; details: Homo sapiens, DU-145, DU145 cells, 24 hrs, read-out: Inhibition of cancer cell proliferation IC50
Description: as §1

Toxicity studies in mice = assay type: in vivo; details: B6C3F1 mice, 20 mg/kg orally, 21 days
Description: Female B6C3F1 mice (12/group) were given example 4 orally at 30 mg/kg, 50 mg/kg and 80 mg/kg dosage or example 820 mg/kg orally for 21 days.

**Q.** Which “p-MEK level (western blot)” value (p-MEK) does the source give for `O=C(NOCC1CC1)c1ccc(F)c(F)c1Nc1ccc(I)cc1Cl` [PD184352, reference compound] here?
**A.** dose-dependent increase in the p-MEK levels

**Q.** With `NCCN1C(=O)S/C(=C\CCc2ccccc2)C1=O` [Example 8, 3-(2-aminoethyl)-5-(3-phenylpropylidene)thiazolidine-2,4-dione] as the molecule, how does the IC50 (PC-3) read?
**A.** 14.6 µM

**Q.** And the IC50 (U937)?
**A.** 12.2 µM

**Q.** What about the IC50 (M12) of the same molecule?
**A.** 14.8 µM

**Q.** And the IC50 (DU145)?
**A.** 30.8 µM

**Q.** And the “effects on general health and body weight” value (Toxicity studies in mice)?
**A.** no effects on general health and body weight were observed
